From ChEMBL document CHEMBL4229345, “Inhibition of trypanosome alternative oxidase without its N-terminal mitochondrial targeting signal (ΔMTS-TAO) by cationic and non-cationic 4-hydroxybenzoate and 4-alkoxybenzaldehyde derivatives active against T. brucei and T. congolense” (Eur J Med Chem, 2018) come the findings set out here.

The MIC is the lowest concentration that inhibits growth of the organism. A word on the Ki: it is a dissociation constant, usually derived from enzyme kinetics or from competition with a known ligand. As a reminder, the IC50 is the point on the concentration scale where inhibition reaches its midpoint. The EC50 is the concentration needed to bring the measured effect to its halfway point. What is called CC50 is the concentration that lowers cell viability or growth by half.

Molecules are shown by their SMILES. ≈ marks a conversion by molar mass, not a printed value. A value given as a limit tells only on which side of the number the result lay.

Data set [1] deals with Trypanosoma brucei brucei. Description: Anti-parasitic activity against bloodstream trypomastigote stage of wild-type Trypanosoma brucei brucei Lister 427. In kind it is functional.
Data set [2] relates to Trypanosoma brucei brucei. Description: Anti-parasitic activity against bloodstream trypomastigote stage of wild-type Trypanosoma brucei brucei Lister 427 after 48 hrs in presence of 5 mM glycerol by resazurin-based assay. In kind it is functional, organism-based. The settings on record: Lister 427, 48 h. In general terms: Alamar Blue is a resazurin reagent that responds to reducing activity.

The nature of data set [3]: Non-competitive inhibition of Trypanosoma brucei brucei TC221 TAO expressed in Escherichia coli FN102 assessed as reduction in ubiquinoldependent oxygen consumption by spectrophotometry.
Data set [4] can be described thus: Inhibition of recombinant N-terminal His6 tagged SUMO-fused Trypanosoma brucei brucei TC221 TAO MTS deletion mutant expressed in Escherichia coli FN102 preincubated for 2 mins followed by ubiquinol-1 addition measured over 2 mins by double beam-dual wavelength UV-spectrophotometry.
Data set [5] can be described thus: Stability in horse serum assessed as compound receovery after 24 hrs by LC/MS analysis. In kind it is ADME, cell-free, Equus caballus. The settings on record: read-out: Drug recovery.
Data set [6] is described as follows: Stability in mouse serum assessed as parent compound recovery after 15 mins by LC/MS analysis. In kind it is ADME, cell-free. The settings on record: read-out: Drug recovery.
The subject of data set [7] is Trypanosoma brucei brucei. Description: Resistance factor, ratio of EC50 for bloodstream trypomastigote stage of wild-type Trypanosoma brucei brucei Lister 427 in presence of 5 mM glycerol to EC50 for bloodstream trypomastigote stage of wild-type Trypanosoma brucei brucei Lister 427. In kind it is functional.
The test system of data set [8] is Trypanosoma brucei brucei. Description: Anti-parasitic activity against bloodstream trypomastigote stage of wild-type Trypanosoma brucei brucei Lister 427 after 48 hrs by resazurin-based assay. In kind it is functional, organism-based. The following applies: Lister 427, 48 h.
Data set [9] is described as follows: Resistance factor, ratio of EC50 for bloodstream trypomastigote stage of pentamidine/diminazene/melaminophenyl arsenical resistant Trypanosoma brucei B48 to EC50 for bloodstream trypomastigote stage of wild-type Trypanosoma brucei brucei Lister 427. In kind it is functional.
Data set [10] relates to Trypanosoma brucei brucei. Description: Anti-parasitic activity against bloodstream trypomastigote stage of Trypanosoma brucei brucei with AQP triple knock out after 48 hrs by resazurin-based assay. In kind it is functional, organism-based.
A short description of data set [11]: Cytotoxicity against HFF cells assessed as reduction in cell viability after 30 hrs by resazurin-based assay. The following applies: human.
The subject of a further data set is Trypanosoma brucei. Description: Anti-parasitic activity against bloodstream trypomastigote stage of pentamidine/diminazene/melaminophenyl arsenical resistant Trypanosoma brucei B48 after 48 hrs by resazurin-based assay. In kind it is functional, organism-based. The following applies: B48, 48 h.
Data set [12] in a line: Selectivity index, ratio of CC50 for HFF cells to EC50 for bloodstream trypomastigote stage of wild-type Trypanosoma brucei brucei Lister 427. In kind it is toxicity. The settings on record: human, read-out: Ratio CC50/EC50.
The test system of the next data set is Trypanosoma congolense. Description: Anti-parasitic activity against bloodstream form of Trypanosoma congolense IL3000 after 48 hrs by resazurin-based assay. In kind it is functional, organism-based. The settings on record: IL3000, 48 h.
Data set [13] has as its system Trypanosoma brucei brucei. Description: Resistance factor, ratio of EC50 for bloodstream trypomastigote stage of Trypanosoma brucei brucei AQP triple knock out to EC50 for bloodstream trypomastigote stage of wild-type Trypanosoma brucei brucei Lister 427. In kind it is functional.
The nature of data set [14]: Stability in mouse serum assessed as parent compound remaining after 0.25 to 24 hrs by LC/MS analysis. In kind it is ADME, cell-free.
Data set [15] has as its system Trypanosoma brucei brucei. Description: Anti-parasitic activity against bloodstream trypomastigote stage of Trypanosoma brucei brucei with AQP2/3-dd knock out after 48 hrs by resazurin-based assay. In kind it is functional, organism-based.
Data set [16] in a line: Protein binding in mouse serum up to 24 hrs by LC/MS analysis. In kind it is ADME, cell-free. The following applies: read-out: PB (converted).
The subject of data set [17] is Trypanosoma brucei brucei. Description: Resistance factor, ratio of EC50 for bloodstream trypomastigote stage of Trypanosoma brucei brucei with AQP2/3-dd knock out to EC50 for bloodstream trypomastigote stage of wild-type Trypanosoma brucei brucei Lister 427. In kind it is functional.
Data set [18] is described as follows: Selectivity index, ratio of CC50 for HFF cells to EC50 for bloodstream form of Trypanosoma congolense IL3000. In kind it is toxicity. The following applies: human, read-out: Ratio CC50/EC50.

`C/C(=C\Cc1c(O)c(Cl)c(C)c(C=O)c1O)CC/C=C(\C)[C@@H]1CC(=O)C(C)(C)O1` [ASCOFURANONE]: the minimum inhibitory concentration (MIC) in [1] worked out at 250 µM (≈ 105 µg/mL); in data set [2], 30 µM. For the same compound, in data set [3], the Ki was 2.38 nM. For the same compound, in data set [4], the IC50 worked out at 2 nM.

For `COc1ccc([C@@H]2Sc3ccccc3N(CCN(C)C)C(=O)[C@@H]2OC(C)=O)cc1` [DILTIAZEM], the remaining at 24 h in data set [5] was found to be 1%.

On to `O=Cc1ccc(OCCCCCCCCCCCCCC[P+](c2ccccc2)(c2ccccc2)c2ccccc2)cc1O.[Br-]`, for which the remaining at 0.25 h in [6] amounted to 12%. In addition, the “Ratio EC50” value amounted to 0.51 in data set [7], 0.8 in data set [9], 0.4 in data set [13] and 0.32 in [17]. Further, the concentration for a half-maximal effect (EC50) in data set [8] came out at 133 nM; in [2], 67 nM; in data set [10] it was 53 nM; with Trypanosoma brucei it was 110 nM; with Trypanosoma congolense, 270 nM; in [15] it was 42 nM. Moreover, the half-maximal cytotoxic concentration (CC50) at 30 h in [11] is over 200000 nM. Also, the results for the selectivity ratio in data set [12] and in data set [18] were over 1500 and over 740, respectively. Further, in data set [14], the Stability entry was “Stable”. Further, in data set [16], the fraction unbound at 24 h was 0.1. Further, in data set [4], the IC50 is 220 nM.
